{
  "source": "patent US11465987B2",
  "about": "“Compounds for treatment of cancer” (ONCTERNAL THERAPEUTICS, INC., priority 2012, dated 2022)",
  "key": {"[1]": {"system": "DU 145 human prostate cancer cell line", "assay": "Cytotoxicity (SRB) assay, DU 145", "assay_type": "cell-based", "excerpt": "(§1) Cells were stained with SRB solution."}, "[2]": {"system": "PPC-1 human prostate cancer cell line", "assay": "Cytotoxicity (SRB) assay, PPC-1", "assay_type": "cell-based", "excerpt": "as §1"}, "[3]": {"system": "PC-3 human prostate cancer cell line", "assay": "cells", "excerpt": "as §1"}, "[4]": {"system": "LNCaP human prostate cancer cell line", "assay": "Cytotoxicity (SRB) assay, LNCaP", "assay_type": "cell-based", "excerpt": "as §1"}, "[5]": {"system": "A375 human melanoma cell line", "assay": "Cytotoxicity (SRB) assay, A375", "assay_type": "cell-based", "conditions": "Homo sapiens"}, "[6]": {"system": "melanoma and prostate cancer cell lines", "assay": "Antiproliferative activity summarised over the cell line panel (range or average)", "assay_type": "cell-based", "conditions": "for IC50: Tables 11-13, read-out: IC50 (average of all seven cell lines); for antiproliferative activity in words: Tables 1-3"}, "[7]": {"system": "WM-164 human melanoma cell line", "assay": "Cytotoxicity (SRB) assay, WM-164", "assay_type": "cell-based", "conditions": "read-out: IC50 ± SEM, WM164 (converted)"}, "[8]": {"system": "B16-F1 mouse melanoma cell line", "assay": "Cytotoxicity (SRB) assay, B16-F1", "assay_type": "cell-based", "conditions": "Mus musculus"}, "[9]": {"conditions": "Table 13A, read-out: inhibitory effects, LNCaP"}, "[10]": {"conditions": "Homo sapiens, DU-145, Table 13A, read-out: inhibitory effects, DU145"}, "[11]": {"conditions": "Homo sapiens, PPC-1, Table 13A, read-out: inhibitory effects, PPC1"}, "[12]": {"conditions": "Homo sapiens, read-out: inhibitory effects, PC3, Table 13A"}, "[13]": {"conditions": "Homo sapiens, LNCaP, Table 13A, read-out: inhibitory effects, LNCaP"}, "[14]": {"conditions": "Homo sapiens, read-out: IC50 PC-3, SRB assay, prostate cancer PC-3"}, "[15]": {"conditions": "Homo sapiens, LNCaP, SRB assay, prostate cancer LNCaP, read-out: IC50 LNCaP"}, "[16]": {"conditions": "A-375, SRB assay, human melanoma A375, read-out: IC50 A375"}, "[17]": {"conditions": "B16-F1, Table 12, read-out: IC50 ± SEM, B16-F1 (converted)"}},
  "note": "Like-named read-outs stand apart in the source and are kept apart here.",
  "data": [
    {"smiles": "COc1cc(C(=O)c2csc(-c3cccs3)n2)cc(OC)c1OC", "note": "[compound 25]", "values": [
      {"measurement": "IC50", "setting": "[1]; Homo sapiens, DU-145, read-out: IC50 ± SEM, DU 145", "value": 24, "unit": "nM"},
      {"measurement": "IC50", "setting": "[2]; Homo sapiens, PPC-1, read-out: IC50 ± SEM, PPC-1", "value": 13, "unit": "nM"},
      {"measurement": "IC50", "setting": "[3]; Homo sapiens, read-out: IC50 ± SEM, PC-3", "value": 44, "unit": "nM"},
      {"measurement": "IC50", "setting": "[4]; Homo sapiens, LNCaP, read-out: IC50 ± SEM, LNCaP", "value": 48, "unit": "nM"}
    ]},
    {"smiles": "COc1cc(C(=O)c2nc(-c3ccc(F)cc3)c[nH]2)cc(OC)c1OC", "note": "[70b, (4-(4-Fluorophenyl)-1H-imidazol-2-yl)(3,4,5-trimethoxyphenyl)methanone and (5-(4-fluorophenyl)-H-imidazol-2-yl)(3,4,5-trimethoxyphenyl)methanone]", "values": [
      {"measurement": "IC50", "setting": "[1]; Table 13A, read-out: inhibitory effects, DU145", "value": 353, "unit": "nM"},
      {"measurement": "IC50", "setting": "[2]; Table 13A, read-out: inhibitory effects, PPC1", "value": 13, "unit": "nM"},
      {"measurement": "IC50", "setting": "[3]; read-out: inhibitory effects, PC3, Table 13A", "value": 196, "unit": "nM"},
      {"measurement": "IC50", "setting": "[4]; [9]", "value": 114, "unit": "nM"}
    ]},
    {"smiles": "COc1cc(C(=O)c2nc(-c3ccccc3)cn2C(C)C)cc(OC)c1OC", "note": "[70ac]", "values": [
      {"measurement": "IC50", "setting": "[1]; [10]", "value": 114, "unit": "nM"},
      {"measurement": "IC50", "setting": "[2]; [11]", "value": 15, "unit": "nM"},
      {"measurement": "IC50", "setting": "[3]; [12]", "value": 52.5, "unit": "nM"},
      {"measurement": "IC50", "setting": "[4]; [13]", "value": 62.2, "unit": "nM"}
    ]},
    {"smiles": "COc1cc(Sc2cccc(-c3ccccc3)c2)cc(OC)c1OC", "note": "[4a, Biphenyl-3-yl(3,4,5-trimethoxyphenyl)sulfane]", "values": [
      {"measurement": "IC50", "setting": "[3]; [14]", "value": "> 10000", "unit": "nM"},
      {"measurement": "IC50", "setting": "[4]; [15]", "value": "2300 ± 200", "unit": "nM"},
      {"measurement": "IC50", "setting": "[5]; [16]", "value": "1600 ± 400", "unit": "nM"}
    ]},
    {"smiles": "COc1ccc(-c2nc(C(=O)c3ccc(F)cc3)c[nH]2)cc1OC", "note": "[12hb, (2-(3,4-dimethoxyphenyl)-1H-imidazol-4-yl)(4-fluorophenyl)methanone]", "values": [
      {"measurement": "IC50", "setting": "[6]", "value": "1 to 50", "unit": "µM"},
      {"measurement": "IC50", "setting": "[3]; Homo sapiens, read-out: IC50 ± SEM, PC-3, Table 12", "value": 10000, "unit": "nM"},
      {"measurement": "IC50", "setting": "[7]; Homo sapiens, WM164, Table 12", "value": 1400, "unit": "nM"},
      {"measurement": "IC50", "setting": "[8]; [17]", "value": 4210, "unit": "nM"}
    ]},
    {"smiles": "COc1cc(NC(=O)c2csc(-c3ccccc3)n2)cc(OC)c1OC", "note": "[2g, 2-Phenyl-N-(3,4,5-trimethoxyphenyl)thiazole-4-carboxamide]", "values": [
      {"measurement": "IC50", "setting": "[3]; [14]", "value": "> 10000", "unit": "nM"},
      {"measurement": "IC50", "setting": "[4]; [15]", "value": "> 10000", "unit": "nM"}
    ]},
    {"smiles": "COc1cc(C(=O)c2c[nH]c(-c3ccc(O)cc3)n2)cc(OC)c1OC", "note": "[12ka, (2-(4-hydroxyphenyl)-1H-imidazol-4-yl)(3,4,5-trimethoxyphenyl)methanone]", "values": [
      {"measurement": "IC50", "setting": "[5]; A-375, Table 12, read-out: IC50 ± SEM, A375 (converted)", "value": 1600, "unit": "nM"},
      {"measurement": "IC50", "setting": "[7]; Homo sapiens, WM164, Table 12", "value": 1800, "unit": "nM"},
      {"measurement": "IC50", "setting": "[8]; [17]", "value": 2400, "unit": "nM"}
    ]},
    {"smiles": "COc1ccc(C(=O)n2ccnc2-c2ccc(F)cc2)cc1", "note": "[compound 24]", "values": [
      {"measurement": "IC50", "setting": "[4]; Table 6A, read-out: IC50 ± SEM, LNCaP (converted)", "value": "> 10000", "unit": "nM"},
      {"measurement": "IC50", "setting": "[7]; Table 6A", "value": "> 10000", "unit": "nM"}
    ]},
    {"smiles": "CNCc1ccc(-c2nc(C(=O)c3cc(OC)c(OC)c(OC)c3)cs2)cc1.Cl", "note": "[2s, (2-(4-((Methylamino)methyl)phenyl)thiazol-4-yl)(3,4,5-trimethoxyphenyl)methanone hydrochloride]", "values": [
      {"measurement": "IC50", "setting": "[1]; Homo sapiens, SRB assay, prostate cancer DU 145, read-out: IC50 DU 145", "value": "> 10000", "unit": "nM"},
      {"measurement": "antiproliferative activity in words", "setting": "[6]", "value": "abrogated activity"},
      {"measurement": "IC50", "setting": "[3]; Homo sapiens, read-out: IC50 PC-3", "value": "> 10000", "unit": "nM"}
    ]},
    {"smiles": "COc1cc(C(=O)c2nc(-c3ccc(C)cc3)c[nH]2)cc(OC)c1OC", "note": "[70f, (4-p-Tolyl-1H-imidazol-2-yl)(3,4,5-trimethoxyphenyl)methanone and (5-p-tolyl-H-imidazol-2-yl)(3,4,5-trimethoxyphenyl)methanone]", "values": [
      {"measurement": "IC50", "setting": "[4]; [9]", "value": 13, "unit": "nM"}
    ]},
    {"smiles": "COc1cc(C(=O)c2csc(-c3ccc(N(C)C)cc3)n2)cc(OC)c1OC", "note": "[2o, (2-(4-(Dimethylamino)phenyl)thiazol-4-yl)(3,4,5-trimethoxyphenyl)methanone]", "values": [
      {"measurement": "IC50", "setting": "[1]; Homo sapiens, DU-145, SRB assay, prostate cancer DU 145, read-out: IC50 DU 145", "value": 121, "unit": "nM"},
      {"measurement": "IC50", "setting": "[2]; Homo sapiens, PPC-1, SRB assay, prostate cancer PPC-1, read-out: IC50 PPC-1", "value": 73, "unit": "nM"},
      {"measurement": "IC50", "setting": "[3]; [14]", "value": 73, "unit": "nM"},
      {"measurement": "IC50", "setting": "[4]; [15]", "value": 65, "unit": "nM"},
      {"measurement": "IC50", "setting": "[5]; [16]", "value": 38, "unit": "nM"},
      {"measurement": "IC50", "setting": "[8]; B16-F1, SRB assay, mouse melanoma B16-F1, read-out: IC50 B16-F1", "value": 42, "unit": "nM"}
    ]},
    {"smiles": "COc1cc(C(=O)c2csc(-c3ccc(CN(C)C)cc3)n2)cc(OC)c1OC.Cl", "note": "[2u, (2-(4-((Dimethylamino)methyl)phenyl)thiazol-4-yl)(3,4,5-trimethoxyphenyl)methanone hydrochloride]", "values": [
      {"measurement": "antiproliferative activity in words", "setting": "[6]", "value": "abrogated activity"},
      {"measurement": "IC50", "setting": "[3]; [14]", "value": "> 10000", "unit": "nM"}
    ]},
    {"smiles": "COc1cc(-c2cccc(CO)c2)cc(OC)c1OC", "note": "[compound 39]", "values": [
      {"measurement": "IC50", "setting": "[1]; Homo sapiens, DU-145, Table 6A, read-out: IC50 ± SEM, DU 145", "value": 16800, "unit": "nM"},
      {"measurement": "IC50", "setting": "[2]; Homo sapiens, PPC-1, Table 6A, read-out: IC50 ± SEM, PPC-1 (converted)", "value": 21400, "unit": "nM"},
      {"measurement": "IC50", "setting": "[3]; Homo sapiens, read-out: IC50 ± SEM, PC-3, Table 6A", "value": 32500, "unit": "nM"},
      {"measurement": "IC50", "setting": "[4]; Homo sapiens, LNCaP, Table 6A, read-out: IC50 ± SEM, LNCaP (converted)", "value": 4300, "unit": "nM"}
    ]},
    {"smiles": "COc1cc(-c2nc(C(=O)c3ccc(F)cc3)cn2S(=O)(=O)c2ccccc2)cc(OC)c1OC", "note": "[11eb, (4-fluorophenyl)(1-(phenylsulfonyl)-2-(3,4,5-trimethoxyphenyl)-1H-imidazol-4-yl)methanone]", "values": [
      {"measurement": "IC50", "setting": "[6]", "value": "1 to 50", "unit": "µM"},
      {"measurement": "IC50", "setting": "[3]; Homo sapiens, read-out: IC50 ± SEM, PC-3, Table 13", "value": "> 10000", "unit": "nM"}
    ]},
    {"smiles": "COc1cc(C(=O)c2nc(-c3ccccc3)cn2Cc2ccccc2)cc(OC)c1OC", "note": "[70o, (1-Benzyl-4-phenyl-1H-imidazol-2-yl)(3,4,5-trimethoxyphenyl)methanone]", "values": [
      {"measurement": "IC50", "setting": "[1]; [10]", "value": 160, "unit": "nM"},
      {"measurement": "IC50", "setting": "[2]; [11]", "value": 77, "unit": "nM"},
      {"measurement": "IC50", "setting": "[3]; [12]", "value": 72, "unit": "nM"},
      {"measurement": "IC50", "setting": "[4]; [13]", "value": 67, "unit": "nM"}
    ]}
  ]
}
